In EPA's ToxRefDB 2:

Columns and labels:
rat [1] = details: Other (NonGuideline or Guideline Not Listed), sprague dawley, Oral, Gavage/Intubation, dose end: 20 PND, group: cannot be grouped
rat [2] = details: Peri- and post-natal toxicity study (Segment III), sprague dawley, Oral, Gavage/Intubation, dose end: 54 PND
rat [3] = details: Prenatal developmental toxicity study, sprague dawley, Oral, Gavage/Intubation, dose end: 15 GD
rabbit [4] = details: Prenatal developmental toxicity study, new zealand white, Oral, Gavage/Intubation, dose end: 18 GD, group: maternal
mouse [5] = details: Subchronic oral toxicity in rodents, cd1, Feed, dose end: 13 week, group: systemic, systemic / hematology / leukocyte (wbc) count differential / leukocyte (wbc) + systemic / hematology / lymphocyte / lymphocyte + systemic / …
rat [6] = details: Chronic toxicity, wistar, Oral, Feed, dose end: 104 week, group: systemic
dog [7] = details: Chronic toxicity, beagle, Oral, Feed, dose end: 12 month, group: systemic
rat [8] = details: Subchronic oral toxicity in rodents, wistar, Feed, dose end: 90 day, group: systemic
rabbit [9] = details: Prenatal developmental toxicity study, himalayan, Oral, Gavage/Intubation, dose end: 19 GD
mouse [10] = details: Carcinogenicity, b6c3f1, Oral, [Not Specified], dose end: 78 week, group: systemic
rat [11] = details: Carcinogenicity, wistar, Oral, Feed, dose end: 104 week, group: systemic
dog [12] = details: Subchronic oral toxicity in nonrodent, beagle, Feed, dose end: 90 day, group: systemic
[13] = developmental / developmental landmark / preputial separation / preputial separation
[14] = developmental / developmental malformation / general / [other] + developmental / developmental malformation / penis / [other] + …
[15] = group: developmental, developmental / developmental landmark / preputial separation / preputial separation
[16] = group: parental, systemic / organ weight / [other] / absolute + systemic / organ weight / adrenal gland / absolute + systemic / organ weight / epididymis / …
[17] = group: developmental, developmental / developmental malformation / bone / incomplete ossification + developmental / developmental malformation / bone / unossified
[18] = group: maternal, systemic / in life observation / clinical signs / salivation + systemic / in life observation / mortality / mortality + systemic / in life …
[19] = reproductive / reproductive performance / implantations / implantations + systemic / in life observation / body weight / body weight gain + …
[20] = systemic / clinical chemistry / cholesterol / cholesterol
[21] = systemic / clinical chemistry / cholesterol / cholesterol + systemic / in life observation / body weight / body weight + systemic / in life …
[22] = systemic / organ weight / liver / relative to body weight + systemic / pathology microscopic / liver / hemosiderosis + systemic / clinical …
[23] = systemic / clinical chemistry / albumin / albumin + systemic / clinical chemistry / protein / protein
[24] = systemic / organ weight / liver / absolute + systemic / organ weight / liver / relative to body weight + systemic / pathology microscopic / …
[25] = group: developmental, developmental / developmental malformation / bone / full supernumerary + developmental / developmental malformation / bone / fused + …
[26] = group: maternal, systemic / in life observation / body weight / body weight gain + systemic / in life observation / food consumption / food efficiency + …
[27] = systemic / organ weight / kidney / absolute
[28] = systemic / pathology gross / lymph node / enlarged + systemic / pathology gross / spleen / enlarged + systemic / pathology microscopic / …
[29] = systemic / organ weight / liver / relative to body weight + systemic / pathology microscopic / spleen / hemosiderosis + systemic / …

`CC(C)C(=O)Nc1ccc([N+](=O)[O-])c(C(F)(F)F)c1` [Flutamide] was tested, and the LEL (rat [1]; [13]) was 0.4 mg/kg/day, the NEL (rat [1]; [13]) was < 0.4 mg/kg/day and the LOAEL (rat [1]; [14]) was > 10 mg/kg/day. For the same compound, the NOAEL (rat [1]; [14]) was ≥ 10 mg/kg/day, the LEL (rat [2]; [15]) was 25 mg/kg/day and the LOAEL (rat [2]; [15]) was > 50 mg/kg/day. The NEL (rat [2]; [15]) was < 25 mg/kg/day, the NOAEL (rat [2]; [15]) was ≥ 50 mg/kg/day and the LEL (rat [2]; [16]) was 25 mg/kg/day. The LOAEL (rat [2]; [16]) was > 50 mg/kg/day, the NEL (rat [2]; [16]) was < 25 mg/kg/day and the NOAEL (rat [2]; [16]) was ≥ 50 mg/kg/day.

Compound `CCN(CC)CC.O=C(O)COc1nc(Cl)c(Cl)cc1Cl` [Triclopyr triethylamine salt] has an LEL (rat [3]; [17]) of 300 mg/kg/day, an LOAEL (rat [3]; [17]) of 300 mg/kg/day and an NEL (rat [3]; [17]) of 100 mg/kg/day. For the same compound, the NOAEL (rat [3]; [17]) was 100 mg/kg/day, the LOAEL (rat [3]; group: maternal, systemic / in life observation / clinical signs / salivation + systemic / in life observation / mortality / mortality) was 300 mg/kg/day and the NEL (rat [3]; [18]) was 30 mg/kg/day. For the same compound, the NOAEL (rat [3]; [18]) was 100 mg/kg/day, the LEL (rat [3]; group: maternal, systemic / in life observation / water consumption / water consumption) was 100 mg/kg/day and the LOAEL (rabbit [4]; [19]) was 100 mg/kg/day. The NEL (rabbit [4]; [19]) was 10 mg/kg/day, the NOAEL (rabbit [4]; [19]) was 30 mg/kg/day and the LEL (rabbit [4]; reproductive / reproductive performance / preimplantation loss / preimplantation loss) was 30 mg/kg/day.

In the case of `COc1cc(OC)nc(NC(=O)NS(=O)(=O)c2cc(NC=O)ccc2C(=O)N(C)C)n1` [Foramsulfuron], the LEL (mouse [5]) is reported as 1000 mg/kg/day, the LOAEL (mouse [5]) is reported as > 1000 mg/kg/day and the NEL (mouse [5]) is reported as 498 mg/kg/day. The NOAEL (mouse [5]) was ≥ 1000 mg/kg/day.

With `CN1CSC(=S)N(C)C1` [Dazomet] the LEL (rat [6]; [20]) was 3.81 mg/kg/day, the LOAEL (rat [6]; [20]) was 3.81 mg/kg/day and the NEL (rat [6]; [21]) was 0.94 mg/kg/day. It also gave an NOAEL (rat [6]; [21]) of 0.94 mg/kg/day, an LOAEL (dog [7]; systemic / organ weight / liver / relative to body weight + systemic / pathology microscopic / liver / hemosiderosis) of 1.12 mg/kg/day and an LEL (dog [7]; [22]) of 1.12 mg/kg/day. For the same compound, the NEL (dog [7]; [22]) was 0.35 mg/kg/day, the NOAEL (dog [7]; [22]) was 0.35 mg/kg/day and the LEL (rat [8]; [23]) was 1.7 mg/kg/day. For the same compound, the NEL (rat [8]; [23]) was < 1.7 mg/kg/day, the LOAEL (rat [8]; [24]) was 4.5 mg/kg/day and the NOAEL (rat [8]; [24]) was 1.5 mg/kg/day. It also gave an LEL (rabbit [9]; [25]) of 45 mg/kg/day, an LOAEL (rabbit [9]; [25]) of 45 mg/kg/day and an NEL (rabbit [9]; [25]) of 15 mg/kg/day. It also gave an NOAEL (rabbit [9]; [25]) of 15 mg/kg/day, an LOAEL (rabbit [9]; group: maternal, systemic / in life observation / body weight / body weight gain + systemic / in life observation / food consumption / food efficiency) of 45 mg/kg/day and an LEL (rabbit [9]; [26]) of 45 mg/kg/day. The NEL (rabbit [9]; [26]) was 15 mg/kg/day, the NOAEL (rabbit [9]; [26]) was 15 mg/kg/day and the LEL (mouse [10]; [27]) was 3.9 mg/kg/day. For the same compound, the NEL (mouse [10]; [27]) was < 3.9 mg/kg/day, the LOAEL (mouse [10]; systemic / pathology microscopic / liver / adenoma) was 15.6 mg/kg/day and the NOAEL (mouse [10]; systemic / pathology microscopic / liver / adenoma + systemic / in life observation / body weight / body weight + systemic / in life …) was 3.9 mg/kg/day. For the same compound, the LEL (rat [11]; systemic / pathology gross / lymph node / enlarged + systemic / pathology gross / spleen / enlarged) was 0.9 mg/kg/day, the LOAEL (rat [11]; [28]) was > 3.71 mg/kg/day and the NEL (rat [11]; [28]) was 0.2 mg/kg/day. For the same compound, the NOAEL (rat [11]; [28]) was ≥ 3.71 mg/kg/day, the LOAEL (dog [12]; systemic / organ weight / liver / relative to body weight + systemic / pathology microscopic / spleen / hemosiderosis) was 7.25 mg/kg/day and the LEL (dog [12]; [29]) was 7.25 mg/kg/day. For the same compound, the NEL (dog [12]; [29]) was 3.5 mg/kg/day and the NOAEL (dog [12]; [29]) was 3.5 mg/kg/day.
